Experiment: solvent given as SMILES

SMILES: CCCCc1ccc2ccc3c(CCCC)cc(CCCC)c4ccc1c2c34
- absorption maximum (in CCCCCC): 352 nm
- absorption maximum (in CO): 351 nm
- absorption maximum (in ClCCl): 354 nm

SMILES: CCOC(=O)c1ccccc1-c1c2ccc(=[N+](CC)CC)cc-2oc2c1oc1cc(N)ccc12
- absorption maximum (in CCO): 590 nm
- absorption maximum (in ClCCl): 587 nm
- absorption maximum (in O): 588 nm

SMILES: CC1=C(Cl)C(/C=C/c2ccc3c(c2)c2ccccc2n3Cc2cn(CCC[P+](c3ccccc3)(c3ccccc3)c3ccccc3)nn2)=[N+]2C1=C(c1ccc(I)cc1)c1c(C)c(Cl)c(C)n1[B-]2(F)F
- absorption maximum (in CCO): 612 nm

SMILES: CCN(CC)c1ccc(-c2nc(Oc3ccc(-c4nc5ccc(Cl)cc5o4)cc3)nc(Oc3ccc(-c4nc5ccc(Cl)cc5o4)cc3)n2)cc1
- absorption maximum (in CN(C)C=O): 393 nm

SMILES: COc1c2ccccc2c(OC)c2c1c1cccc(OC)c1n2C
- absorption maximum (in C1CCCCC1): 409 nm
- absorption maximum (in CC#N): 409 nm
- absorption maximum (in CO): 407 nm
- absorption maximum (in ClCCl): 412 nm

SMILES: COc1ccc(C2=C(c3ccc(C)cc3)C(c3ccccc3)=[N+]3C2=Nc2c(-c4ccc(OC)cc4)c(-c4ccc(C)cc4)c(-c4ccccc4)n2[B-]3(F)F)cc1
- absorption maximum (in Cc1ccccc1): 656 nm

SMILES: CN(C)c1ccc(-c2nc3cc(C(F)(F)F)ccc3n2-c2ccccc2)cc1
- absorption maximum (in CC#N): 332 nm

SMILES: COC(=O)c1c(-c2cc3ccccc3oc2=O)nn(-c2cccc(F)c2)c1C(=O)OC
- absorption maximum (in ClCCl): 323 nm

SMILES: COc1ccc(C(=Cc2ccc(C=O)cc2)c2ccc(OC)cc2)cc1
- absorption maximum (in C1CCOC1): 356 nm

SMILES: Cc1cc(=O)oc2ccc3ccc(O)cc3c12
- absorption maximum (in CC#N): 347 nm
- absorption maximum (in CCO): 350 nm

SMILES: C/C=C/c1ccc(OC)cc1
- absorption maximum (in CCCCCC): 305 nm

SMILES: CCCCCCCCCCCCC1(CCCCCCCCCCCC)c2cc(-c3ccc(C=C4C(=O)c5ccccc5C4=O)cc3)ccc2-c2ccc(-c3ccc(C=C4C(=O)c5ccccc5C4=O)cc3)cc21
- absorption maximum (in C1CCOC1): 433 nm
- absorption maximum (in CC(C)=O): 429 nm
- absorption maximum (in CCCCCC): 419 nm
- absorption maximum (in CS(C)=O): 437 nm
- absorption maximum (in Cc1ccccc1): 429 nm
- absorption maximum (in ClC(Cl)Cl): 438 nm

SMILES: N#Cc1nc2c3ccc(-c4ccc(-n5c6ccccc6c6ccccc65)cc4)cc3c3cc(-c4ccc(-n5c6ccccc6c6ccccc65)cc4)ccc3c2nc1C#N
- absorption maximum (in Cc1ccccc1): 418 nm

SMILES: CC(=O)OCCN1C(=O)c2cccc3c(Oc4ccccc4C)ccc(c23)C1=O
- absorption maximum (in ClC(Cl)Cl): 352 nm

SMILES: Clc1ccccc1N1c2sc3ccccc3c2Sc2sc3ccccc3c21
- absorption maximum (in ClCCl): 314 nm

SMILES: N#Cc1ccc(C2=Cc3ccccc3P2(=O)c2ccccc2)cc1 (configuration not stated)
- absorption maximum (in ClCCl): 350 nm

SMILES: C/C(=C\c1ccc(Cl)cc1)c1nc2ccccc2o1
- absorption maximum (in C1CCCCC1): 320 nm
- absorption maximum (in CO): 320 nm

SMILES: O=c1cc[nH]c(=O)[nH]1
- absorption maximum (in CC#N): 256 nm

SMILES: Nc1ccc(-c2ccc(N)cc2)cc1
- absorption maximum (in C1CCOC1): 306 nm
- absorption maximum (in C1COCCO1): 289 nm
- absorption maximum (in CC#N): 286 nm
- absorption maximum (in CCCCCC): 279 nm
- absorption maximum (in CCOC(C)=O): 285 nm
- absorption maximum (in CN(C)C=O): 299 nm
- absorption maximum (in CO): 281 nm
- absorption maximum (in CS(C)=O): 292 nm
- absorption maximum (in Cc1ccccc1): 295 nm
- absorption maximum (in ClC(Cl)Cl): 305 nm
- absorption maximum (in ClCCl): 286 nm
- absorption maximum (in O): 281 nm

SMILES: CCOC(=O)CN1C(=O)C2=C(c3ccc(N4CCCCC4)cc3)N(CC(=O)OCC)C(=O)C2=C1c1ccc(C#N)cc1
- absorption maximum (in CC#N): 524 nm
- absorption maximum (in CS(C)=O): 541 nm
- absorption maximum (in Cc1ccccc1): 527 nm

SMILES: COc1ccc2cc(-c3ccc([N+](=O)[O-])cc3)ccc2c1
- absorption maximum (in C1CCOC1): 344 nm
- absorption maximum (in CC#N): 341 nm
- absorption maximum (in ClC(Cl)Cl): 346 nm
- absorption maximum (in ClCCl): 345 nm

SMILES: CCCCCCc1ccc(-n2c3[n+](c4c5ccccc5c5ccccc5c42)[B-](C)(C)c2cc(N(c4ccccc4)c4ccccc4)ccc2-3)cc1
- absorption maximum (in C1CCOC1): 393 nm
- absorption maximum (in CC#N): 390 nm
- absorption maximum (in Cc1ccccc1): 397 nm
- absorption maximum (in ClCCl): 392 nm

SMILES: CC(C)c1cccc(C(C)C)c1N1C(=O)c2cccc3c(Oc4ccc(C(C)(C)c5ccccc5)cc4)ccc(c23)C1=O
- absorption maximum (in ClCCl): 365 nm

SMILES: FC(F)(F)C(F)(F)C(F)(F)C1=NC2=C(c3ccccc3)C=C3c4cc(-c5ccccc5)c5nc(C(F)(F)C(F)(F)C(F)(F)F)nc6c(-c7ccccc7)cc(c4c56)=C4C=C(c5ccccc5)C(=N1)C2C34 (configuration not stated)
- absorption maximum (in C1CCOC1): 500 nm

SMILES: CCCCn1c2ccc(-c3ccc(OC)cc3)cc2c2ccc3c4cc(-c5ccc(OC)cc5)ccc4n(CCCC)c3c21
- absorption maximum (in ClC(Cl)Cl): 338 nm

SMILES: COc1ccc(C2=[O+][B-](F)(F)OC(c3ccc4c(c3)Cc3ccccc3-4)=C2)cc1
- absorption maximum (in CC#N): 424 nm

SMILES: c1cc2ccc3ccc4cc3c2cc1CCCCCCc1ccc2ccc3ccc-4cc3c2c1
- absorption maximum (in Cc1ccccc1): 336 nm

SMILES: F[B-]1(F)N(c2ccccc2)C=Cc2cccc[n+]21
- absorption maximum (in C1CCCCC1): 442 nm
- absorption maximum (in C1CCOC1): 425 nm
- absorption maximum (in CC#N): 412 nm
- absorption maximum (in CC(C)=O): 422 nm
- absorption maximum (in CCO): 418 nm
- absorption maximum (in CCOC(C)=O): 427 nm
- absorption maximum (in CO): 417 nm
- absorption maximum (in O): 396 nm

SMILES: CCCC1=C(CCC)c2cccc3c2c(cc2nc4ccccc4nc23)O1
- absorption maximum (in ClCCl): 499 nm

SMILES: Cc1ccc(-c2c3nc(c(-c4ccc(C)cc4)c4ccc([nH]4)c(-c4ccc(OC(=O)C(C)c5ccc(CC(C)C)cc5)cc4)c4nc(c(-c5ccc(C)cc5)c5ccc2[nH]5)C=C4)C=C3)cc1 (configuration not stated)
- absorption maximum (in ClCCl): 649 nm

SMILES: N#Cc1ccc(-c2nc(-c3ccccc3)c(-c3ccccc3)[nH]2)cc1
- absorption maximum (in CO): 339 nm

SMILES: COCCOCCOCCOCC(COCCOCCOCCOC)Oc1cc(/C=C/c2ccc(C=C(C#N)C#N)cc2)c(OC(COCCOCCOCCOC)COCCOCCOCCOC)cc1/C=C/c1ccc(C=C(C#N)C#N)cc1
- absorption maximum (in ClCCl): 465 nm

SMILES: COc1cccc(OC)c1C1=C2C(C)=CC(C)=[N+]2[B-](F)(F)n2c(C)cc(C)c21
- absorption maximum (in C1CCOC1): 506 nm
- absorption maximum (in CC#N): 500 nm
- absorption maximum (in CC(=O)C(C)(C)C): 505 nm
- absorption maximum (in CC(C)=O): 503 nm
- absorption maximum (in CCCCCC): 507 nm
- absorption maximum (in CCOC(C)=O): 504 nm
- absorption maximum (in CO): 503 nm

SMILES: CC(C)(C)NC1=CC2=c3cc(NC(C)(C)C)c4nc(C(F)(F)C(F)(F)C(F)(F)F)nc5c(NC(C)(C)C)cc(c3c54)C3=CC(NC(C)(C)C)=C4N=C(C(F)(F)C(F)(F)C(F)(F)F)N=C1C4C32 (configuration not stated)
- absorption maximum (in C1CCOC1): 646 nm

SMILES: CC1(C)c2ccccc2N(c2ccccc2)c2ccc(-c3ccc(-c4ccc5c(c4)C(C)(C)c4ccccc4N5c4ccccc4)c4nsnc34)cc21
- absorption maximum (in Cc1ccccc1): 475.42 nm

SMILES: CCC1=C(C)C2=Cc3c4ccccc4c4n3[B-](c3ccncc3)(Oc3ccccc3-4)[N+]2=C1C=Cc1ccc(OC)cc1 (configuration not stated)
- absorption maximum (in CC#N): 690 nm
- absorption maximum (in CCCCCC): 698 nm
- absorption maximum (in Cc1ccccc1): 703 nm
- absorption maximum (in ClCCl): 699 nm

SMILES: CCN(CC)c1cc2oc3cc(O)c(F)cc3c(=O)c2cc1F
- absorption maximum (in CCO): 379 nm

SMILES: Nc1ccc(N2C(=O)c3ccc4c5ccc6c7c(ccc(c8ccc(c3c48)C2=O)c75)C(=O)NC6=O)cc1
- absorption maximum (in CN(C)C=O): 524 nm

SMILES: N#CC(/N=C/c1c(O)ccc2ccccc12)=C(C#N)/N=C/c1c(O)ccc2ccccc12
- absorption maximum (in CC#N): 520 nm

SMILES: CC[n+]1c(C=C2C(=O)C(C=C3N(C)c4ccc(Cl)cc4C3(C)C)=C2[O-])sc2ccccc21
- absorption maximum (in CO): 634 nm
- absorption maximum (in ClC(Cl)Cl): 649 nm
- absorption maximum (in ClCCl): 650 nm

SMILES: Cc1ccc(-n2c(-c3ccc(N(c4ccc(-c5ccc(N(c6ccc(-c7nc8c9ccccc9c9ccccc9c8n7-c7ccc(C)cc7)cc6)c6ccc(-c7nc8c9ccccc9c9ccccc9c8n7-c7ccc(C)cc7)cc6)cc5)cc4)c4ccc(-c5nc6c7ccccc7c7ccccc7c6n5-c5ccc(C)cc5)cc4)cc3)nc3c4ccccc4c4ccccc4c32)cc1
- absorption maximum (in ClCCl): 376 nm

SMILES: Cc1nc2c(ccc3c2sc(/C=C/c2ccc(-n4c5ccccc5c5ccccc54)cc2)[n+]3C)s1
- absorption maximum (in CO): 446 nm
- absorption maximum (in ClC(Cl)Cl): 488 nm

SMILES: Nc1ccc2cn[nH]c2c1
- absorption maximum (in C1CCCCC1): 296 nm

SMILES: CCCCN(CCCC)c1ccc2c#cc3cc4c#cc5ccc(N(CCCC)CCCC)cc5c#cc#cc5cc(C(F)(F)F)ccc5c#cc4cc3c#cc3ccc(C(F)(F)F)cc3c#cc#cc2c1
- absorption maximum (in ClCCl): 454 nm

SMILES: CCCCCCN1C(=O)c2cccc3c(-c4ccc(-c5cccs5)s4)ccc(c23)C1=O
- absorption maximum (in ClC(Cl)Cl): 409 nm

SMILES: COc1ccc(/C=C/C=C/C2=NC3C(=O)NC(N)=NC3N2[C@H]2C[C@H](O)[C@@H](CO)O2)cc1 (some centres not stated)
- absorption maximum (in C1COCCO1): 354 nm
- absorption maximum (in CC#N): 352 nm
- absorption maximum (in CO): 342 nm

SMILES: Brc1ccc(-c2nc(-c3ccc(C#Cc4ccc(-n5c6ccccc6c6ccccc65)cc4)cc3)nc(-c3ccc(C#Cc4ccc(-n5c6ccccc6c6ccccc65)cc4)cc3)n2)cc1
- absorption maximum (in ClCCl): 357 nm

SMILES: CCCCN(CCCC)c1ccc(/C=C/c2ccc3nc(-c4ccccc4)c(/C=C/c4ccc(N(C)C)cc4)nc3c2)cc1
- absorption maximum (in C1COCCO1): 458 nm
- absorption maximum (in CC#N): 462 nm
- absorption maximum (in ClCCl): 468 nm

SMILES: CCCCC(CC)COc1ccc2nc(-c3ccc(-c4ccccc4)s3)sc2c1 (configuration not stated)
- absorption maximum (in ClCCl): 368 nm

SMILES: C1=CC2C=c3c(cc4cccc5cc6ccccc6c3c45)C3=c4ccccc4=CC(=C1)C32 (configuration not stated)
- absorption maximum (in ClCCl): 592 nm

SMILES: Cc1c(C(=O)c2ccc(C(F)(F)F)cc2)c2ccc3cccc4c5cccc6ccc1c(c65)c2c34
- absorption maximum (in ClCCl): 370 nm

SMILES: COc1ccc(-c2csc(/C(C#N)=C/c3ccc(Cl)cc3)n2)cc1
- absorption maximum (in CC#N): 376 nm

SMILES: CCCCN1C(=O)c2cc(Oc3ccc(C(C)(C)C)cc3)c3c4c(Oc5ccc(C(C)(C)C)cc5)cc5c(=O)[nH]/c(=C\c6ccc7ccccc7n6)c6cc(Oc7ccc(C(C)(C)C)cc7)c(c7c(Oc8ccc(C(C)(C)C)cc8)cc(c2c37)C1=O)c4c56
- absorption maximum (in ClCCl): 626 nm

SMILES: CCC1=C(C)C2=C(C)c3c(I)c(I)c(I)n3[B-](F)(F)[N+]2=C1C
- absorption maximum (in C1CCCCC1): 531.5 nm
- absorption maximum (in CC(C)=O): 517.5 nm
- absorption maximum (in CCO): 522 nm
- absorption maximum (in CCOC(C)=O): 521 nm
- absorption maximum (in CO): 519.5 nm
- absorption maximum (in OCC(F)(F)F): 511.5 nm

SMILES: CCn1c(-c2ccc(-c3ccc(-c4ccc(-c5n(CC)c6ccccc6[n+]5CC)cc4)cc3)cc2)[n+](CC)c2ccccc21
- absorption maximum (in O): 305 nm

SMILES: CCOC(=O)/N=c1/oc2c(OC)cccc2cc1C#N
- absorption maximum (in ClCCl): 374 nm

— the Deep4Chem optical property database
